Measured values reported in patent US9492471B2, “Methods of treating a disease or disorder associated with Bruton'S Tyrosine Kinase” (Celgene Avilomics Research, Inc., priority 2013, dated 2016).
Read-outs that look alike come from different tables or passages of the source.

Key:
Test in all cases: HotSpot kinase profiling
Type in all cases: biochemical
[1] = molecular target: T1, ARAF (Homo sapiens, UniProt P10398)
T1 construct: purchased Reaction Biology Corp
T1 sequence (P10398 1-606): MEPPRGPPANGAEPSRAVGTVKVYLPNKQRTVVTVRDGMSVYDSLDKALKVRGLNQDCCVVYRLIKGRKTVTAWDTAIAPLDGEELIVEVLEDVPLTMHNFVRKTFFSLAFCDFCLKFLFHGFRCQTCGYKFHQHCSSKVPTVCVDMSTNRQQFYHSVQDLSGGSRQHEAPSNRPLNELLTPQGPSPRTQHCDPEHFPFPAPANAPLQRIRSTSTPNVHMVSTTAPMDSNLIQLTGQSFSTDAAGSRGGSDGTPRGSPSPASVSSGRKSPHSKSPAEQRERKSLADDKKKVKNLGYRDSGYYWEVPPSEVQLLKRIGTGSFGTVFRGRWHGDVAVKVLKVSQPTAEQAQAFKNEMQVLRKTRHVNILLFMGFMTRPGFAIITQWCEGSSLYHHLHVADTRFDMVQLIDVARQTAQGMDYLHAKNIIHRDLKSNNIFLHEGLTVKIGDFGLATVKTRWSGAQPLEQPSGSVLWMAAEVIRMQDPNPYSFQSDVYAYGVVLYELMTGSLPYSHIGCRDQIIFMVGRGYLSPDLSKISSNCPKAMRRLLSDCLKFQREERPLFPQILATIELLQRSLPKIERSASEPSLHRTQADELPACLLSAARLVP
In short: (§1)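 Radio-isotope P81 filtration format. Substrate + required cofactors in reaction buffer, kinase added, 2 h RT. Stop, wash with 0.1% phosphoric acid, detect. % inhibition vs DMSO; mean of duplicates where repeated.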

[2] = molecular target: T2, IKKe/IKBKE (Homo sapiens, UniProt Q14164)
T2 construct: purchased Reaction Biology Corp
T2 sequence (Q14164 1-716): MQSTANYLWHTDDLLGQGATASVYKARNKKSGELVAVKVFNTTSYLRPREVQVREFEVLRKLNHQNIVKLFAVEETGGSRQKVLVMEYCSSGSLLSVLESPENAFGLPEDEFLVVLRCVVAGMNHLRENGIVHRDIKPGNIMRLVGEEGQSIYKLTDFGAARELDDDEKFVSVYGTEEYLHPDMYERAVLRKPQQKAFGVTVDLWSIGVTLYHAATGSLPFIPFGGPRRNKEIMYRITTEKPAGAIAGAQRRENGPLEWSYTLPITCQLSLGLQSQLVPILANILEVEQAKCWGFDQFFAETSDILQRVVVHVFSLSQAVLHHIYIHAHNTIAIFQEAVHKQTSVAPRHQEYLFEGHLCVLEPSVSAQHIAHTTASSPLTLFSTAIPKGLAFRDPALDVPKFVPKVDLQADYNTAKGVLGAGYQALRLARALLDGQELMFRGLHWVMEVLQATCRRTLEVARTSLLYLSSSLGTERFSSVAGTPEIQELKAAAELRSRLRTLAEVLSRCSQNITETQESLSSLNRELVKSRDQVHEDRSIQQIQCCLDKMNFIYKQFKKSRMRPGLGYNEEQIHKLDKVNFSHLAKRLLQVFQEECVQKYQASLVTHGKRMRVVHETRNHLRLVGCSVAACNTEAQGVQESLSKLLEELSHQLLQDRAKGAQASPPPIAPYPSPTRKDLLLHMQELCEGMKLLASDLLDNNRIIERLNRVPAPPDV
In short: as §1

[3] = molecular target: T3, PKD2/PRKD2 (Homo sapiens, UniProt Q9BZL6)
T3 construct: purchased Reaction Biology Corp
T3 sequence (Q9BZL6 1-878): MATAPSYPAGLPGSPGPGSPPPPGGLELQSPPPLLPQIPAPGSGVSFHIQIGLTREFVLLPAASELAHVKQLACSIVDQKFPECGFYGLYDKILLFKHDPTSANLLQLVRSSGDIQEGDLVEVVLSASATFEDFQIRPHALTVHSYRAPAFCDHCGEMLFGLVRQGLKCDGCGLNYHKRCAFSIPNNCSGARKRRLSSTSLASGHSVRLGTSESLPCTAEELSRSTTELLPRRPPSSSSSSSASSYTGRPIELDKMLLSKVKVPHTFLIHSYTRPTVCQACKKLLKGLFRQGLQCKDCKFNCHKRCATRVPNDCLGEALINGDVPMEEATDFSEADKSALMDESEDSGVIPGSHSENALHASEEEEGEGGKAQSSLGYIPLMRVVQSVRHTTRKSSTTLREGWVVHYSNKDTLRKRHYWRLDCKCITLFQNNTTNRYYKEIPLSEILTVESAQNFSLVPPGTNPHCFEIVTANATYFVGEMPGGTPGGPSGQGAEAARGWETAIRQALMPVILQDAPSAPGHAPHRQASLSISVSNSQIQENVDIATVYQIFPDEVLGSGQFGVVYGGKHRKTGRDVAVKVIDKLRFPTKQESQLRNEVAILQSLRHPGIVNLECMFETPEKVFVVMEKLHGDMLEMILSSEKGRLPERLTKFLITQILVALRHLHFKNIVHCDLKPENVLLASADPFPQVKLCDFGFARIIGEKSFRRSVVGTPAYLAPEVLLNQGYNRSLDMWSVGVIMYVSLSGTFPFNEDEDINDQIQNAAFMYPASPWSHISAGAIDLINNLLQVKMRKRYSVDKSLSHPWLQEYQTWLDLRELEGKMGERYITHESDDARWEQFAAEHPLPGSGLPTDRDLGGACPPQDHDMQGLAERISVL
In short: as §1

[4] = molecular target: T4, DDR1 (Homo sapiens, UniProt Q08345)
T4 construct: purchased Reaction Biology Corp
In short: as §1

[5] = molecular target: T5, MNK2 (Homo sapiens, UniProt Q9HBH9)
T5 construct: purchased Reaction Biology Corp
In short: as §1

[6] = read-out: % Enzyme Activity (relative to DMSO controls) Run 1
[7] = read-out: % Enzyme Activity (relative to DMSO controls) Run 2

T4 sequence (Q08345 19-913): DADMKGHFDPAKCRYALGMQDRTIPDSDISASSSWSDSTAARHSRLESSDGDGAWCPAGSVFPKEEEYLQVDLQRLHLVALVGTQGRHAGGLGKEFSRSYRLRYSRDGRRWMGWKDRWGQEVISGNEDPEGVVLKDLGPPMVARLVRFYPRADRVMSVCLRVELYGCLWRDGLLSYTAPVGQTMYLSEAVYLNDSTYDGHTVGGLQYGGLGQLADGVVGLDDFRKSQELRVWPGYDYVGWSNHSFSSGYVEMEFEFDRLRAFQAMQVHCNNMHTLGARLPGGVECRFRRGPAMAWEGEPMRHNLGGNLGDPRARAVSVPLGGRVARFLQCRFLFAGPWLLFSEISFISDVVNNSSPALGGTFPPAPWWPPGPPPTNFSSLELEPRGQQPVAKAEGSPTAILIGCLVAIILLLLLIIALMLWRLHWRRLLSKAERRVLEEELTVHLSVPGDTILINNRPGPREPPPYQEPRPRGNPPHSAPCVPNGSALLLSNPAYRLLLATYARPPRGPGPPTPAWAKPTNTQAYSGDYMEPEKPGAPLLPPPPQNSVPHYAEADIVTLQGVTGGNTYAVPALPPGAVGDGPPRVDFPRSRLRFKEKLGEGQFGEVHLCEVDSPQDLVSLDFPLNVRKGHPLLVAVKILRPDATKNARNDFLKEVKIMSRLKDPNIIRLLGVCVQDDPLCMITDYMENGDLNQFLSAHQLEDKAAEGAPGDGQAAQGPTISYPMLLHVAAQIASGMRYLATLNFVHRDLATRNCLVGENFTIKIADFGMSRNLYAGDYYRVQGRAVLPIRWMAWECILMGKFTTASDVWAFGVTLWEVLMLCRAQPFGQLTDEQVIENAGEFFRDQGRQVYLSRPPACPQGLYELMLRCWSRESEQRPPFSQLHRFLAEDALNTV
T5 sequence (Q9HBH9 whole entry): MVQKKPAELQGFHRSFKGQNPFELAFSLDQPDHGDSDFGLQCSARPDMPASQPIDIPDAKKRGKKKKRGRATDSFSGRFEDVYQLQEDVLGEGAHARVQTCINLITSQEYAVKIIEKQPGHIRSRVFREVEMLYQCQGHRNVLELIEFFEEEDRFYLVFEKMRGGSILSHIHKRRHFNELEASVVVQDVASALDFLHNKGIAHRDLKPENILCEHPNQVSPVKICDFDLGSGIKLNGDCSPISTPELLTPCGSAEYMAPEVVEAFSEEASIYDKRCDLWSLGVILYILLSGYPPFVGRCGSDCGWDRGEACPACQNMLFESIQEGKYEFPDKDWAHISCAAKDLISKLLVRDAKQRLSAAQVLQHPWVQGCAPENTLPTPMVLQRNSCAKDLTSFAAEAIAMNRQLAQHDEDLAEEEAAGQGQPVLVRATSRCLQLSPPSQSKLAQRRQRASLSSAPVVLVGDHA

Structure (SMILES): C=CC(=O)Nc1cccc(Nc2nc(Nc3ccc(OCCOC)c(F)c3)ncc2F)c1 [Compound 2]
- inhibition at 3 µM [1]: -1.47%
- remaining activity at 3 µM [1, 6]: 103%
- remaining activity at 3 µM [1, 7]: 100%
- inhibition at 3 µM [2]: 21.8%
- remaining activity at 3 µM [2, 6]: 78.3%
- remaining activity at 3 µM [2, 7]: 78.2%
- inhibition at 3 µM [3]: 13.7%
- remaining activity at 3 µM [3, 6]: 86.4%
- remaining activity at 3 µM [3, 7]: 86.2%
- inhibition at 3 µM [4]: 75.1%
- remaining activity at 3 µM [4, 6]: 25.7%
- remaining activity at 3 µM [4, 7]: 24.1%
- inhibition at 3 µM [5]: 16.9%
- remaining activity at 3 µM [5, 6]: 83%
- remaining activity at 3 µM [5, 7]: 83.2%
